The text below walks through data of patent publication US4041158A, “O-alkyl-0-[1-(3-nitrophenyl)-2-carbalkoxy-vinyl ]-thiono(thiol)-phosphoric (phosphonic) acid esters” (priority 1974, dated 1977).

One series concerns Laphygma exigua. As to the kind of experiment: Laphygma test. Format: in vivo. As for the experimental part: (§1) Solvent: 3 parts by weight of acetone
(§2) Emulsifier: 1 part by weight of alkylaryl polyglycol ether
To produce a suitable preparation of active compound, 1 part by weight of the active compound was mixed with the stated amount of solvent and the stated amount of emulsifier and the concentrate was diluted with water to the desired concentration.
Cotton leaves (Gossypium hirsutum) were sprayed with the preparation of the active compound until dew-moist and were then infested with caterpillars of the owlet moth (Laphygma exigua).
After the specified periods of time, the destruction in % was determined.

For a further series, the system named is insects and acarids. Particulars: in vivo; cited from earlier work.
The subject of the next series is Lucilia cuprina. As to the kind of experiment: Test with parasitic fly larvae. It counts as in vivo. Particulars: 24 hours, Lucilia cuprina res., read-out: Degree of destruction in %. As for the experimental part:
Solvent: 35 parts by weight of ethylene polyglycol monomethyl ether
35 parts by weight of nonylphenol polyglycol ether
To produce a suitable preparation of active compound, 30 parts by weight of the active substance in question were mixed with the stated amount of solvent which contained the abovementioned proportion of emulsifier and the concentrate thus obtained was diluted with water to the desired concentration.
About 20 fly larvae (Lucilia cuprina) were introduced into a test tube which contains approximately 2 cm^3 of horse muscle. 0.5 ml of the preparation of active compound was applied to this horse meat. After 24 hours, the degree of destruction in % was determined. 100% means that all larvae had been killed and 0% means that no larvae had been killed.

The subject of another series is Drosophila melanogaster. As to the kind of experiment: Drosophila test. It counts as in vivo. Conditions: 24 h, after 1 day, read-out: Degree of destruction in % after 1 day; for mortality at 0.001 % strength: 0.001% by weight active compound; for mortality at 0.01 % strength: 0.01% by weight active compound. As to the method:
Solvent: 3 parts by weight of dimethylformamide
as §2
To produce a suitable preparation of active compound, 1 part by weight of the active compound was mixed with the stated amount of solvent containing the stated amount of emulsifier, and the concentrate was diluted with water to the desired concentration.
1 cm^3 of the preparation of the active compound was applied with a pipette to a filter paper disc of 7 cm diameter. The wet disc was placed over the orifice of a glass vessel containing 50 vinegar flies (Drosophila melanogaster) and covered with a glass plate.
After the specified periods of time, the destruction was determined in %. 100% means that all the flies were killed; 0% means that no flies were killed.

The next series in a line: Toxicity test/peroral. Conditions: in vivo, po; albino rat, peroral; evaluation after 7 days. As for the experimental part: Test animal: Albino rat (Rattus norvegicus)
To produce a suitable preparation of active compound, 3 parts by weight of active compound were mixed with 2.8 parts by weight of highly-dispersed silica and 4.2 parts by weight of talc. Suspensions which contain, in 1 ml of liquid, the amount of active compound to be applied per 100 g of animal weight, were prepared from the above active compound concentrate, with a little added powdered vegetable gum, by grinding with water. Dosing was effected volumetrically after weighing the test animals. A steel knob-ended probe was used for oral administration. The evaluation was carried out in each case after the end of the above-mentioned time interval, calculated from the administration of the active compound.
The LD50 values (dose of active compound at which 50% of the treated animals were killed) were determined in the usual manner from the mortality figures of the doses, which were varied in geometrical progression.

A further series concerns Phaedon cochleariae. The series is described as follows: Phaedon larvae test (long-term action after spraying). It counts as in vivo. Conditions: 0.05% active compound, Brassica oleracea. As for the experimental part:
as §1, §2
(§3) To produce a suitable preparation of active compound, 1 part by weight of the active compound was mixed with the stated amount of solvent containing the stated amount of emulsifier and the concentrate was diluted with water to the desired concentration.
(§4) Cabbage plants (Brassica oleracea), which were about 10-15 cm high, were sprayed with the preparation of the active compound until dripping wet.
After the specified periods of time, the plants were infested with mustard beetle larvae (Phaedon cochleariae). After intervals of 3 days, the destruction in % was determined. 100% means that all beetle larvae had been killed whereas 0% means that none of the beetle larvae had been killed.

The subject of a further series is Myzus persicae. The series is described as follows: Myzus test (long-term action after spraying). Format: in vivo. Conditions: 0.05% active compound, Brassica oleracea. As to the method: as §1, §2, §3, §4
After the specified periods of time, the plants were infested with aphids (Myzus persicae). After intervals of 3 days, the destruction in % was determined. 100% means that all aphids had been killed whereas 0% means that none of the aphids had been killed.

[1] abbreviates: 0.001% by weight active compound.
[2] abbreviates: 0.01% by weight active compound.
The mark [3] stands for this setting: 96 h, 4 days, read-out: % destruction after 4 days.
Setting [4] is: 192 h, 8 days, read-out: % destruction after 8 days.

Read-outs that look alike come from different tables or passages of the source.

For the compound `CCOC(=O)C=C(OP(=S)(OCC)OCC)c1cccc([N+](=O)[O-])c1` [drawing 14], the “Degree of destruction in % after 3 days” value with Laphygma exigua (setting [1]) and in the series with Laphygma exigua (setting [2]) was 100% throughout. With `CCOC(=O)C=C(OP(=S)(OCC)OCC)c1ccc([N+](=O)[O-])cc1` [Compound B, O,O-diethyl-O-[1-(4-nitrophenyl)-2-carbethoxyvinyl]-thionophosphoric acid ester], the “insecticidal and acaricidal properties” value in the series on insects and acarids was “possess insecticidal and acaricidal properties”. For the compound `CCOC(=O)C=C(OP(=S)(OCC)OCC)c1ccc([N+](=O)[O-])cc1` [drawing 31], in the series with Lucilia cuprina, the mortality at 10 ppm is > 50% and the mortality at 100 ppm amounted to 100%. Take `CCOP(=S)(OCC)OC(=CC(=O)OC(C)C)c1cccc([N+](=O)[O-])c1` [drawing 10]: in the series on Drosophila melanogaster, the mortality at 0.001 % strength came out at 100% and the mortality at 0.01 % strength was found to be 100%. For `CCCSP(=S)(OCC)OC(=CC(=O)OCC)c1cccc([N+](=O)[O-])c1` (stereo not drawn) [drawing 30], in the series on Lucilia cuprina, the mortality at 10 ppm was 100% and the mortality at 100 ppm worked out at 100%. Further, the mortality at 30 ppm with Lucilia cuprina (30 ppm) was determined as 100%. Turning to `CCCSP(=S)(OCC)OC(=CC(=O)OCC)c1cccc([N+](=O)[O-])c1` (stereo not drawn) [drawing 27], the LD50 (commonly the dose at which mortality reaches 50%) at 168 h in “Toxicity test/peroral” was in the range of 100 to 250 mg/kg. Take `CCOC(=O)C=C(OP(=S)(OCC)OCC)c1ccc([N+](=O)[O-])cc1` [drawing 20]: the mortality at 0.05 % strength came out at 100% with Phaedon cochleariae (setting [3]); 100% in the series with Phaedon cochleariae (setting [4]); 50% in the series with Phaedon cochleariae (264 h, 11 days, read-out: % destruction after 11 days); 0% in the series with Phaedon cochleariae (360 h, 15 days, read-out: % destruction after 15 days). In the case of `CCOC(=O)C=C(OP(=S)(OC)OC)c1cccc([N+](=O)[O-])c1`, the “Degree of destruction in % after 3 days” value worked out at 85% with Laphygma exigua (setting [1]) and 100% in the series on Laphygma exigua (setting [2]). Take `CCOC(=O)C=C(OP(=S)(OCC)OCC)c1ccc([N+](=O)[O-])cc1` [drawing 23]: the mortality at 0.05 % strength in the series with Myzus persicae (setting [3]) amounted to 50%; in the series with Myzus persicae (setting [4]), 0%. Regarding `CCOC(=O)C=C(OP(=S)(OC)OC)c1ccc([N+](=O)[O-])cc1` [drawing 8, reference compound], in the series with Drosophila melanogaster, the mortality at 0.001 % strength is 0% and the mortality at 0.01 % strength was 100%. As to `CCOC(=O)C=C(OP(=S)(OC)OC)c1ccc([N+](=O)[O-])cc1` [Compound A, O,O-dimethyl-O-[1-(4-nitrophenyl)-2-carbethoxyvinyl]-thionophosphoric acid ester], the “insecticidal and acaricidal properties” value in the series on insects and acarids was “possess insecticidal and acaricidal properties”. Consider `CCOP(=S)(OCC)OC(=CC(=O)OC(C)C)c1cccc([N+](=O)[O-])c1` [drawing 19], for which the “Degree of destruction in % after 3 days” value in the series with Laphygma exigua (setting [1]) and with Laphygma exigua (setting [2]) was 100% in each case.

For the compound `CCCOP(=S)(OCC)OC(=CC(=O)OCC)c1cccc([N+](=O)[O-])c1` (stereo not drawn), the LD50 at 168 h in the series “Toxicity test/peroral” was in the range of 50 to 100 mg/kg. `CCCOP(=S)(OCC)OC(=CC(=O)OC(C)C)c1cccc([N+](=O)[O-])c1` (stereo not drawn): in the series with Drosophila melanogaster, the mortality at 0.001 % strength came to 98% and the mortality at 0.01 % strength stood at 100%. Take `CCOC(=O)C=C(OP(=S)(OC)OC)c1ccc([N+](=O)[O-])cc1` [drawing 12, reference compound]: the “Degree of destruction in % after 3 days” value with Laphygma exigua (setting [1]) is on record as 0%; in the series with Laphygma exigua (setting [2]), 100%. For the compound `CCOC(=O)C=C(OP(=S)(OCC)OCC)c1cccc([N+](=O)[O-])c1` [drawing 9], in the series on Drosophila melanogaster, the mortality at 0.001 % strength was 99% and the mortality at 0.01 % strength is 100%. With `CCOC(=O)C=C(OP(=S)(OCC)OCC)c1ccc([N+](=O)[O-])cc1` [drawing 26, reference compound], the median lethal dose (LD50) at 168 h in the series “Toxicity test/peroral” was in the range of 10 to 25 mg/kg. Take `CCOC(=O)C=C(OP(=S)(OCC)c1ccccc1)c1cccc([N+](=O)[O-])c1` (stereo not drawn): the LD50 at 168 h in “Toxicity test/peroral” was in the range of 50 to 100 mg/kg.
